Data taken from ChEMBL document CHEMBL5465560, “Selectivity Literature for EUbOPEN Chemogenomic Library” (2024).
Each block holds one compound with its values, some of them ahead of it.

Tests used:
[1] = target: Homeodomain-interacting protein kinase 1 (Homo sapiens, UniProt Q86Z02); settings: at 10 µM
[2] = target: Mitogen-activated protein kinase kinase kinase 9 (Homo sapiens) (UniProt P80192); assay: Selectivity interaction (Ambit KINOMEscan and KiNATiv profiling in Jurkat cells) EUB0000090b MAP3K9; assay type: cell-based; settings: at 1 µM
SRSF protein kinase 1 = SRSF protein kinase 1 (Homo sapiens, UniProt Q96SB4); assay: Selectivity interaction (ActivX KiNativ screen (kinase selectivity in THP-1 cell lysates)) EUB0000639a SRPK1; assay type: subcellular; settings: lysate, at 5 µM
[3] = target: T1, Mitogen-activated protein kinase kinase kinase 5 (Homo sapiens) (UniProt Q99683); assay: Selectivity interaction (ActivX KiNativ screen (kinase selectivity in THP-1 cell lysates)) EUB0000639a MAP3K5; assay type: subcellular; settings: lysate, at 0.04 µM
T1 sequence (whole entry): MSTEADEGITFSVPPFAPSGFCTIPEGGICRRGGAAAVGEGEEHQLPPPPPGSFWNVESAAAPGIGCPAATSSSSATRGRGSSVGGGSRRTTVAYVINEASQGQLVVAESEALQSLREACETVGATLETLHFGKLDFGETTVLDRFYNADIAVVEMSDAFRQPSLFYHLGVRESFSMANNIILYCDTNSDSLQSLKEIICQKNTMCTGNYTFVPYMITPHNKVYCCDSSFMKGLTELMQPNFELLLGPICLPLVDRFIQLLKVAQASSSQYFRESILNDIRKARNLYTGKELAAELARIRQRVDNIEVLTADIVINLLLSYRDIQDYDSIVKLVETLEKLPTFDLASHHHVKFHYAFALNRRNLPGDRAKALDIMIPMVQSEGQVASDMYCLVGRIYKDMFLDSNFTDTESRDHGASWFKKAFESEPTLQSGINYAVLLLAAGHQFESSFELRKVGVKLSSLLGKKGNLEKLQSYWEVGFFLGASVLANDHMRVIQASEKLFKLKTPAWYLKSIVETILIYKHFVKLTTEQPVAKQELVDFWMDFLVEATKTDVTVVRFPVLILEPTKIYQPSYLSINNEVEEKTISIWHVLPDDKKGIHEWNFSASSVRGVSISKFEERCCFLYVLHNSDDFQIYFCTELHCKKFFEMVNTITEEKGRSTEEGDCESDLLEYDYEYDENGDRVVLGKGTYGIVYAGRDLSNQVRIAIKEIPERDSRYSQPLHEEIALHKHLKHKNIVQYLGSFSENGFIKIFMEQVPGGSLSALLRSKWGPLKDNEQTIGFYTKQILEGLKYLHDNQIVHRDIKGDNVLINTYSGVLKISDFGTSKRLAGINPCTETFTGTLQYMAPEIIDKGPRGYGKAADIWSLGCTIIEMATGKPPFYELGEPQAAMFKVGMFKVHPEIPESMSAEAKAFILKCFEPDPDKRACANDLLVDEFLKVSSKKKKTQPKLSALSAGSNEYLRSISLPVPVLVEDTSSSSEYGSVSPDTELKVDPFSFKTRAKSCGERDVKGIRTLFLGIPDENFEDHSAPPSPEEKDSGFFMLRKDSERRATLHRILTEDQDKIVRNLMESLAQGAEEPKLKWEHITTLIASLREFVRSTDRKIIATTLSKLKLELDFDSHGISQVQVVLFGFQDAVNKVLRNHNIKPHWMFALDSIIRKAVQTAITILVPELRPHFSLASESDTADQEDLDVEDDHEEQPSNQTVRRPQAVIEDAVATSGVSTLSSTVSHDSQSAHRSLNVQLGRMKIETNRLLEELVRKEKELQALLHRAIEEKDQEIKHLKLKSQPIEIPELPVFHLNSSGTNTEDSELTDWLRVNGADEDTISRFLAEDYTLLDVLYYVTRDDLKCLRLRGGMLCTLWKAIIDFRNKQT

[4] = target: Serine/threonine-protein kinase MARK1 (Homo sapiens) (UniProt Q9P0L2); settings: at 10 µM
[5] = target: Serine/threonine-protein kinase NIM1 (Homo sapiens, UniProt Q8IY84); assay: Selectivity interaction (KinomeScan (DiscoverX)) EUB0000595a NIM1K; settings: at 10 µM
[6] = target: T2, Serine/threonine-protein kinase PLK4 (Homo sapiens) (UniProt O00444); assay: Selectivity interaction (KinomeScan (DiscoverX)) EUB0001079a PLK4; settings: at 1 µM
T2 sequence (whole entry): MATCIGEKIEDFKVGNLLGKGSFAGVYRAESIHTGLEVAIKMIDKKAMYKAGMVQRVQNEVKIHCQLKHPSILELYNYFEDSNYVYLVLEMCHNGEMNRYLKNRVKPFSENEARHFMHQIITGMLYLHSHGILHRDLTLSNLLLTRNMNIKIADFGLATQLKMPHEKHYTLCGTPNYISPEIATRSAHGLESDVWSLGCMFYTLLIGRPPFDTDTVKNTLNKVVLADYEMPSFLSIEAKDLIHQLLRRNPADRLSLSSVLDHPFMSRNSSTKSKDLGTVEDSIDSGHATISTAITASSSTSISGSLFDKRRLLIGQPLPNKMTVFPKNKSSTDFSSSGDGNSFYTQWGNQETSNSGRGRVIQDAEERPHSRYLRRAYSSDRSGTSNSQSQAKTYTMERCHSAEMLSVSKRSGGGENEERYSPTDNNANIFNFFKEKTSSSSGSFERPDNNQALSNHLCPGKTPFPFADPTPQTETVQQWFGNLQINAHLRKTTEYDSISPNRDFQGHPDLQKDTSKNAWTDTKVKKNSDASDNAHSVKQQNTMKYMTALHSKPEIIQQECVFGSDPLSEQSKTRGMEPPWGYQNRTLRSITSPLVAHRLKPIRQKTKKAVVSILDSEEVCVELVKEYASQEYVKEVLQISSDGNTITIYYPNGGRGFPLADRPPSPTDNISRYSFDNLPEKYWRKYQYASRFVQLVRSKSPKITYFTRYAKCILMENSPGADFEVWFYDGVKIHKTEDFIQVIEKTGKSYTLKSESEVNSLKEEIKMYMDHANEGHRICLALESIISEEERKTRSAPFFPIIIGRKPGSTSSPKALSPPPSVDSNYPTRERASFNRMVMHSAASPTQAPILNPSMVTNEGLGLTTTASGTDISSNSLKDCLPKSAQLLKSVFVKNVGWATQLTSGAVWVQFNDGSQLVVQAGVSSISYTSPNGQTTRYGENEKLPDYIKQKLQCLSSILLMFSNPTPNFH

[7] = target: STE20-like serine/threonine-protein kinase (Homo sapiens, UniProt Q9H2G2); assay: Selectivity interaction (KinomeScan (DiscoverX)) EUB0000045b SLK
[8] = target: Mitogen-activated protein kinase kinase kinase 10 (Homo sapiens) (UniProt Q02779); assay: Selectivity interaction (KinomeScan (DiscoverX)) EUB0000607a MAP3K10; settings: at 10 µM
[9] = target: BDNF/NT-3 growth factors receptor (Homo sapiens) (UniProt Q16620); assay: Selectivity interaction (KinomeScan (DiscoverX)) EUB0000666a NTRK2; settings: at 10 µM

Chain of STE20-like serine/threonine-protein kinase (Q9H2G2 whole entry, looked up): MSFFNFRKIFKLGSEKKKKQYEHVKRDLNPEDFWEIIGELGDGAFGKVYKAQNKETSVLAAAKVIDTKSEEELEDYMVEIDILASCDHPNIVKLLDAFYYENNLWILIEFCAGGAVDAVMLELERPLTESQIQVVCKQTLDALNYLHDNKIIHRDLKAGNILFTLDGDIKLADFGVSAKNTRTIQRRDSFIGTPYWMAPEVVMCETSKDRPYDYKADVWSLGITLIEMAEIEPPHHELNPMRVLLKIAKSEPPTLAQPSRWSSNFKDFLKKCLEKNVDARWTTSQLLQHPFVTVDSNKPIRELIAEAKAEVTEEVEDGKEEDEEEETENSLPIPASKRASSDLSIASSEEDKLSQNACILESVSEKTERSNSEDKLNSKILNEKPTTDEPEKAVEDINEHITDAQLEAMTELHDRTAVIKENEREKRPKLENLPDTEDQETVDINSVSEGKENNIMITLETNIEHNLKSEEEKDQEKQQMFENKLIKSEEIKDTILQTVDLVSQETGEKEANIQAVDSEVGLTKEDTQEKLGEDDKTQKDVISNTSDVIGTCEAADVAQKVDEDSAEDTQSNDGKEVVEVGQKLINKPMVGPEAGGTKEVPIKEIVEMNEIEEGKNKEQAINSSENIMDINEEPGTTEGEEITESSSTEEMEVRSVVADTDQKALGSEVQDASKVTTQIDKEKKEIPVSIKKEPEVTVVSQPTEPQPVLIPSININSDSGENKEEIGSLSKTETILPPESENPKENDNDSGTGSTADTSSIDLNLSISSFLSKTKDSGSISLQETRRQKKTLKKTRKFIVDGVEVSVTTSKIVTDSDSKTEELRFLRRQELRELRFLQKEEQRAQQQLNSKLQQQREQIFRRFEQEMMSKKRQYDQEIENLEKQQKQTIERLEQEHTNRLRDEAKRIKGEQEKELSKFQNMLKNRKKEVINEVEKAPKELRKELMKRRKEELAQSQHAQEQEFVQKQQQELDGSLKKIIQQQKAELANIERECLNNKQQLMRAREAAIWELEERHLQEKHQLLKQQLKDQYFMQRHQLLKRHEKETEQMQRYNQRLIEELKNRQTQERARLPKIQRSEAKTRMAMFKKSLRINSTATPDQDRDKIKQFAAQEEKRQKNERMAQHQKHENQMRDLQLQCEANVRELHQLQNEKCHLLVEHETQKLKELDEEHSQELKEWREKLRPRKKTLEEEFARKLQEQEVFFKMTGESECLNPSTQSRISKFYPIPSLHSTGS
Chain of Homeodomain-interacting protein kinase 1 (Q86Z02 whole entry, looked up): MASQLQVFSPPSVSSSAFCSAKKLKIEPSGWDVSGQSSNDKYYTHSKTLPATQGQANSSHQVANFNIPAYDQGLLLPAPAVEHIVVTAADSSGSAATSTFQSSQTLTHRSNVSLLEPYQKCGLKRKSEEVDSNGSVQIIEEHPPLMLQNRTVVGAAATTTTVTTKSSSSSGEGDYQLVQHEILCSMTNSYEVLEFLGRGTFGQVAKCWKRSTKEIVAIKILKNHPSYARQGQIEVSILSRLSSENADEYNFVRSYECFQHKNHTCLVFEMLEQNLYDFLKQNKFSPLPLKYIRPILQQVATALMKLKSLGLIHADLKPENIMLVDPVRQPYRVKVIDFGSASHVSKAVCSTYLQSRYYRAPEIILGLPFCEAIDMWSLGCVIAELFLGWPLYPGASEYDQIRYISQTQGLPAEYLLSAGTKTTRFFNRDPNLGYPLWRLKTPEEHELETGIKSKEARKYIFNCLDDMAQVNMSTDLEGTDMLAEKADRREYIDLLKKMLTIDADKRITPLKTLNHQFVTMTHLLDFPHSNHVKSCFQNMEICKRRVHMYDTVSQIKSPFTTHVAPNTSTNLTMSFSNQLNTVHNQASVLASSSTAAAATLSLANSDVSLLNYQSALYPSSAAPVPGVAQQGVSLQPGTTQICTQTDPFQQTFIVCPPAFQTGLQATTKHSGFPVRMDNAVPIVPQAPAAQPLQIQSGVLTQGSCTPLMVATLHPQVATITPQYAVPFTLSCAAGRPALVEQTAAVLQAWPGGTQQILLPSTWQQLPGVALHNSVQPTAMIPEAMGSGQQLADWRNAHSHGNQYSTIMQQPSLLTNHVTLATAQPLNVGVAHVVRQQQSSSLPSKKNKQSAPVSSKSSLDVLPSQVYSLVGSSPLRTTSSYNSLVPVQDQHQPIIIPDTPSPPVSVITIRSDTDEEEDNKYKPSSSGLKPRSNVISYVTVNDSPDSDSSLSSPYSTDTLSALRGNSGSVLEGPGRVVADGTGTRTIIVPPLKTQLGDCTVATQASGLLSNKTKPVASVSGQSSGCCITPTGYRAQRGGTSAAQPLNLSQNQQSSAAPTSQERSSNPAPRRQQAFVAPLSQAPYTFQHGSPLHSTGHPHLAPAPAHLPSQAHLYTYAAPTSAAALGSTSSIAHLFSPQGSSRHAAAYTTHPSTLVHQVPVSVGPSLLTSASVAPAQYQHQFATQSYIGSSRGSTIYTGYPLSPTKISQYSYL
Chain of Serine/threonine-protein kinase NIM1 (Q8IY84 whole entry): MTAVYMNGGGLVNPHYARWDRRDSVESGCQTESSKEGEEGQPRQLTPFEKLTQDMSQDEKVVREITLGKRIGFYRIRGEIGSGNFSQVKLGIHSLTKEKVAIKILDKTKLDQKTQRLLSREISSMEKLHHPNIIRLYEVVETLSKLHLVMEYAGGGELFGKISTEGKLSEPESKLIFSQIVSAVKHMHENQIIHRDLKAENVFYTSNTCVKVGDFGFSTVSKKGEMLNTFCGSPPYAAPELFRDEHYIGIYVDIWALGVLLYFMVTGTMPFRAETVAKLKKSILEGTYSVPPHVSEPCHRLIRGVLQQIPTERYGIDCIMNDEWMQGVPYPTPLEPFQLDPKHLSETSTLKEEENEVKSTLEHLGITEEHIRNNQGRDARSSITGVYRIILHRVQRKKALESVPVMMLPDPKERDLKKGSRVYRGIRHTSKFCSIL
Chain of Serine/threonine-protein kinase MARK1 (Homo sapiens) (Q9P0L2 whole entry, looked up): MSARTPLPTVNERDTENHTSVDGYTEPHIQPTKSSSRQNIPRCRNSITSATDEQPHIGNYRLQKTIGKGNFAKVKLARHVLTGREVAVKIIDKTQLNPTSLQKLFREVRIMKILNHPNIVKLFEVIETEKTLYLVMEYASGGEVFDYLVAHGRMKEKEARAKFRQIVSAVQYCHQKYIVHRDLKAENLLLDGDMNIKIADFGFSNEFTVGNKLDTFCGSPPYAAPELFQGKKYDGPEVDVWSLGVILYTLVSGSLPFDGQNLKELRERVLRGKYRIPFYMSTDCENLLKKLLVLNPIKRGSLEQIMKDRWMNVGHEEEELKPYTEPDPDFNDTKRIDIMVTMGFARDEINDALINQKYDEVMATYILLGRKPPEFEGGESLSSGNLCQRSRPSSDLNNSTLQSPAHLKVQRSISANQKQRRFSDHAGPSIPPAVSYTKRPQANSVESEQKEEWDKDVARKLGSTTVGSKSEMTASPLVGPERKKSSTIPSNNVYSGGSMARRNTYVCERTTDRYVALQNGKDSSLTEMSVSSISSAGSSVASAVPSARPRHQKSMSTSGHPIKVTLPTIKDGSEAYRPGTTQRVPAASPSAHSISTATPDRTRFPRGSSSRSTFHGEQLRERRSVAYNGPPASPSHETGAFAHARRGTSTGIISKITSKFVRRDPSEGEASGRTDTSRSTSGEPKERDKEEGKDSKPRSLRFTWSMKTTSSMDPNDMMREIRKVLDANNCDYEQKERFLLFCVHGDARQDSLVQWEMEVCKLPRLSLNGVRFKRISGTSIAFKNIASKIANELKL
Chain of Mitogen-activated protein kinase kinase kinase 9 (Homo sapiens) (P80192 whole entry, looked up): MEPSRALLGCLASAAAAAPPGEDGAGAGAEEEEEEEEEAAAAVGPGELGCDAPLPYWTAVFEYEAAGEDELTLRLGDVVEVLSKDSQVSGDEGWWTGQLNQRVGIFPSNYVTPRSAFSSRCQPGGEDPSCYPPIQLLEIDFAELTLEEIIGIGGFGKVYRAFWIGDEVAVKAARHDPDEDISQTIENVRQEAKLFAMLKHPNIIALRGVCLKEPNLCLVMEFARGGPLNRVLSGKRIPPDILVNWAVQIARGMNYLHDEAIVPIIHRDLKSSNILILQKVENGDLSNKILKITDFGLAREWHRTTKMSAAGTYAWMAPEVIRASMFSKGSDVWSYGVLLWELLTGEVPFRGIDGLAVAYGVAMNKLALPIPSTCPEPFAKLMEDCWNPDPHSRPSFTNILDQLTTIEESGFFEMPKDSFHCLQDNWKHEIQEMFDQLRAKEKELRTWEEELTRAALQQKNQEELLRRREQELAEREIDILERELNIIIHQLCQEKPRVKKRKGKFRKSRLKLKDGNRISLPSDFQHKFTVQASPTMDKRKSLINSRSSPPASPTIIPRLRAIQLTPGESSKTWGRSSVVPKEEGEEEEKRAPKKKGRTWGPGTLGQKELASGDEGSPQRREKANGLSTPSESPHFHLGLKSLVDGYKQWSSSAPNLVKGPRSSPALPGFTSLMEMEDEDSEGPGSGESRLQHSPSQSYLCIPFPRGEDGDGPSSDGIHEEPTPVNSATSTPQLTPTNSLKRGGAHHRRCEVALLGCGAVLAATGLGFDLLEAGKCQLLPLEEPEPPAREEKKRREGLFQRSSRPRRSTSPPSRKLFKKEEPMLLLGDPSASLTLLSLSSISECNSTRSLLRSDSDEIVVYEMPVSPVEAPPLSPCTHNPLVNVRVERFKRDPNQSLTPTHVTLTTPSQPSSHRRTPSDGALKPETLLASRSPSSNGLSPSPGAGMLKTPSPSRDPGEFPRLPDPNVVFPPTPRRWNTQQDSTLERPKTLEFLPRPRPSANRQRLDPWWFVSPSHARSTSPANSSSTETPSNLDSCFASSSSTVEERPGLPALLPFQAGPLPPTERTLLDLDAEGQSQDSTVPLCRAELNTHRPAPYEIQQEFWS

SMILES: Cc1cc([C@@H](C)Nc2ccccc2C(=O)O)c2nc(N3CCOCC3)cc(=O)n2c1 [AZD-6482]
% of control [1]: 100%

SMILES: CN(C)C/C=C/C(=O)Nc1ccc(C(=O)N2CCCC(Nc3ncc(Cl)c(-c4c[nH]c5ccccc45)n3)C2)cc1 (stereo unspecified)
% of control [2]: 100%

% of inhibition (SRSF protein kinase 1): -1.1% | % of inhibition [3]: -7.7%
SMILES: CC[C@@H]1[C@H](F)C(=O)N[C@@H]1COc1nccc2cc(C(N)=O)c(OC)cc12 [ZIMLOVISERTIB]

% of control [4]: 100%
SMILES: CCN(CC)CCCCNc1ncc2cc(-c3cc(OC)cc(OC)c3)c(NC(=O)NC(C)(C)C)nc2n1

SMILES: COCC(=O)NC/C=C/c1ccc2ncnc(Nc3ccc(Oc4ccc(C)nc4)c(C)c3)c2c1 [CP-724714]
% of control [5]: 87%

SMILES: Nc1cnc(N2CCc3cc(S(=O)(=O)Nc4c(F)cc(Cl)cc4F)cc(N4CCCC4=O)c32)nc1 [TP-020n]
% of control [6]: 100%

SMILES: C=CC(=O)Nc1cc(-n2c(=O)ccc3cnc4ccc(-c5ccc(NS(C)(=O)=O)cc5)cc4c32)ccc1C
% of control ([7]; at 1 µM): 59% | % of control ([7]; at 10 µM): 100%

SMILES: CNC(=O)Nc1ccc(-c2nc(N3CC4CCC(C3)O4)c3cnn(C4CCC5(CC4)OCCO5)c3n2)cc1
% of control [8]: 100%

SMILES: O=C(NOC[C@H](O)CO)c1ccc(F)c(F)c1Nc1ccc(I)cc1F
% of control [9]: 100%
